PubChem BioAssay AID463074 (Broad Institute, 2010)
Activity calls are given as the source filed them.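 Rule for the calls: active = AC50 no more than tenfold above the top dose tested, or full inhibition at every dose with a flat fit (cut at about 19 µM in these data); inconclusive = flat curve fit with inhibition between 30% and 70%, or poor fit; inactive = AC50 more than tenfold above the top dose tested.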

Tested on: HMLE_sh_eGFP viability, CellTiter-Glo luminescence, 72 h
Experiment: cytotoxicity in HMLE control line with eGFP shRNA, dose response, counter-screen for HMLE_sh_ECad selective toxicity project, cell-based, HMLE_sh_eGFP, luminescence (AID 463074);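 note: counterscreen control line to flag general toxicity for the HMLE_sh_ECad screen; potency for loss of viability as luminescence drops below DMSO wells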

Row | SMILES | AC50
1 | O=[N+]([O-])c1ccc(/C=N/n2cnc3ccccc32)s1 | 6.83 µM
2 | CCC1=Nc2cc(C(=O)NCc3cccnc3)ccc2Sc2ccc(C)cc21 | 0.816 µM
3 | COc1cccc(S(=O)(=O)NCc2ccc(C(=O)Nc3cccc(Cl)c3)cc2)c1 | 4.74 µM
4 | Cc1cc(C)c2sc(N(CCCN(C)C)C(=O)c3ccc(S(=O)(=O)N4CCCc5ccccc54)cc3)nc2c1 | 3.73 µM
5 | CC(=O)Nc1ccc(SCC(=O)c2cc(C)n(Cc3cccs3)c2C)cc1 | 4.66 µM
6 | O=C(Nc1ccc(C(O)(C(F)(F)F)C(F)(F)F)cc1)c1ccc(Cl)c([N+](=O)[O-])c1 | 7.08 µM
7 | CCCCCCSc1cccc(-c2nc3ccc(C)cn3c2NCc2ccccc2)c1 | 3.37 µM
8 | O=C(CS(=O)c1ccc(C(F)(F)F)cc1[N+](=O)[O-])Oc1ccccc1 (stereo not given) | 5.22 µM
9 | O=C(NNC(=O)c1cc(Cl)ccc1O)c1ccc(NS(=O)(=O)c2cccs2)cc1 | 8.13 µM
10 | O=C(NCc1nc(-c2ccc(C(F)(F)F)cc2)no1)Nc1cc(Cl)cc(Cl)c1 | 2.46 µM
11 | CCN(c1ccc(NC(=O)CCc2nc3sc4c(c3c(=O)[nH]2)CCCC4)cc1)C(C)C | 9.45 µM
12 | c1cn2c(NC3CCCCC3)c(-c3ccc(SC4CCCCC4)cc3)nc2cn1 | 3.26 µM
13 | Cn1cnc(Sc2ncnc3nc[nH]c23)c1[N+](=O)[O-] | 3.26 µM
14 | S=C(Nc1ccc(Oc2ccccc2)cc1)NC1CCCCCC1 | 4.84 µM
15 | CC(=O)NC(c1ccccc1)c1cc([N+](=O)[O-])c2cccnc2c1O (stereo not given) | 4.02 µM
16 | CCOC(=O)c1c(C)oc2c1C(=O)c1ccccc1C2=O | 4.72 µM
17 | Oc1ccc(/C=N/Nc2ncc(Br)cn2)c(O)c1 | 5.8 µM
18 | O=C(/C=C/c1ccccc1)NC(=S)NNC(=O)c1cnccn1 | 6.84 µM
19 | CCOc1cc(CNc2ccc(Br)cc2)cc(Br)c1OCC(=O)NC(C)(C)C | 6.32 µM
20 | O=C(NNC(=O)c1cc(-c2ccc(Cl)c(Cl)c2)nc2ccccc12)Nc1ccccc1 | 6.4 µM
21 | CC(C)Oc1ccc(CNC(=O)CC(c2ccccc2)c2cc(Cl)ccc2O)cc1 (stereo not given) | 5.58 µM
22 | CCc1nc(N2CCC(C)CC2)c2oc3ccccc3c2n1 | 7.06 µM

Row | SMILES | AC50
23 | COc1ccc(C(=O)/C=C/c2ccc(N3CCCCC3)c([N+](=O)[O-])c2)c(OC)c1 | 6.6 µM
24 | Nc1ncnc2c1c(-c1ccc(Oc3ccccc3)cc1)cn2C1CCCC1 | 1.7 µM
25 | COc1ccc(-c2sc3cc4c(cc3c2-c2ccc(OCCN3CCOCC3)cc2)OCO4)cc1 | 0.254 µM
26 | Cc1cccc(-c2oc3ccccc3c2C#CCCO)c1 | 10.1 µM
27 | COc1ccc(CCC(C)NCC2CCCCC2)cc1 (stereo not given) | 1.66 µM
28 | O=C(NCCc1ccccc1)c1cc(-c2ccccc2)c(N2CCOCC2)s1 | 3.61 µM
29 | Sc1nnc(-c2ccc(Cl)cc2)n1Cc1ccccc1 | 8.62 µM
30 | COc1ccc(-c2noc3c2-c2nc(-c4ccccc4C)sc2CC3)cc1 | 1.03 µM
31 | CCCCNC(=S)N(C)/N=C/c1ccc2c(c1)OCO2 | 16.3 µM
32 | Cc1nc2ccccc2n1/N=C/c1ccc([N+](=O)[O-])o1 | 13.9 µM
33 | Cc1ccc(S(=O)(=O)Nc2ccc(-c3csc(-c4ccccc4)n3)cc2)cc1 | 6.85 µM
34 | OC(CNCCc1ccc(C(F)(F)F)cc1)COc1ccc2ccccc2c1 (stereo not given) | 4.98 µM
35 | COc1ccc2nc(C)cc(N/N=C/c3ccccc3)c2c1 | 7.36 µM
36 | O=[N+]([O-])c1ccccc1-c1ccc(C(=S)N2CCN(c3ccccc3)CC2)o1 | > 19.5 µM (inactive)
37 | Cc1ccc(Oc2c(C(N)=O)cc([N+](=O)[O-])cc2[N+](=O)[O-])cc1 | 3.84 µM
38 | CCOC(=O)C1CCN(c2ncnc3c2c(-c2ccccc2)cn3-c2ccccc2)CC1 | 7.43 µM
39 | CC(=O)Oc1ccc(C(=O)Nc2ccc(C3(C#N)CCCC3)cc2)cc1 | 8.24 µM
40 | Cc1cccc(-n2c(/C=C/c3ccc([N+](=O)[O-])o3)nc3ccccc3c2=O)c1 | 1.99 µM
41 | CC(C)(C)C1CCc2c(sc(NC(=O)CSc3ncn[nH]3)c2C#N)C1 (stereo not given) | 4.79 µM
42 | COc1ccc(OC)c(NC(=O)c2nnn(Cc3ccccc3C)c2N)c1 | 3.61 µM
43 | Cc1ccc(NC(=O)/C=C/c2ccc3c(c2)OCO3)nc1 | 1.16 µM
44 | COc1ccc(/C=N/N(Cc2ccccc2)c2ccccc2)cc1O | 6.77 µM

Row | SMILES | AC50
45 | O=C(NC(=S)Nc1cccc(Cl)c1N1CCCCC1)c1ccco1 | 3.81 µM
46 | C/C(=C\c1ccc(C(=O)O)cc1)c1ccc2c(c1)C(C)(C)CCC2(C)C | 3.7 µM
47 | Cc1ccc(N2C(=O)NC(=O)/C(=C/C=C/c3ccco3)C2=O)cc1 | 3.29 µM
48 | CC(=O)Nc1ccc(N=Cc2c(O)c(C(=O)Nc3ccccc3)cc3ccccc23)cc1 | 4.21 µM
49 | COc1cccc(/C=C/c2ccc3ccccc3n2)c1OC(C)=O | 11.7 µM
50 | CCC(C)c1ccc(NC(=O)C2CC3CCC2C3)cc1 (stereo not given) | 4.98 µM
51 | COc1ccc(C2=Nn3c(nnc3-c3ccccc3F)SC2)cc1OC1CCCC1 | 5.54 µM
52 | CC1=NN(c2ccccc2)C(=O)/C1=C\C=C\c1ccccc1 | 3.55 µM
53 | COC(=O)c1cc(NC(=O)c2cc(-c3ccccc3Cl)oc2C(F)(F)F)ccc1N1CCOCC1 | 20.3 µM
54 | CCN(Cc1ccccc1)c1ccc(/C=N/NC(=S)NC(C)C)cc1 | 4.6 µM
55 | O=c1c2c3c(sc2nc(NCCO)n1Cc1ccco1)CCCCC3 | 2.01 µM
56 | CCCCOc1ccc(C(=O)Nc2ccc3c(c2)OCO3)cc1 | 3.66 µM
57 | O=C(Nc1cccc(Cl)c1N1CCCC1)c1cccc(-c2cc3ccccc3oc2=O)c1 | 0.869 µM
58 | CC(O)CC(C(=O)NNc1ccccc1)C(=O)NNc1ccccc1 (stereo not given) | 1.87 µM
59 | COc1ccc(-c2sc3cc(OC)c(OC)cc3c2C#CC2(O)CCCCC2)cc1 | 5.19 µM
60 | CCN(CC)Cc1c(O)ccc2c1O/C(=C\C=C\c1ccccc1)C2=O | 18.8 µM
61 | Cc1ccc(-c2cc(NC(=O)CCl)n(-c3ccccc3)n2)cc1 | 7.29 µM
62 | CCc1cc(-c2n[nH]c(C)c2Oc2ccc(C(C)C)cc2)c(O)cc1O | 3.65 µM
63 | CCCc1ccc(-c2cc(NC(=O)CSc3nnc(N)s3)n(-c3ccccc3)n2)cc1 | 6.67 µM
64 | Cc1ccc(NC(=O)c2nc(S(=O)(=O)Cc3ccccc3)ncc2Cl)cc1 | 6.39 µM
65 | CCCCN(C)c1nc(-c2ccco2)c2c(c1C#N)CC(C)(C)OC2 | 11.7 µM
66 | CCOC(=O)c1c(NC(=O)C(c2ccccc2)c2ccccc2)sc2c1C1CCN2CC1 | 2.84 µM

Row | SMILES | AC50
67 | O=C(N/N=C/c1c[nH]c2ccccc12)C1CC1(c1ccccc1)c1ccccc1 (stereo not given) | 7.04 µM
68 | COc1cc(/C=C2\C(=O)ON=C2c2ccc(Cl)cc2)ccc1O | 1.55 µM
69 | Cc1cccc(NC2=C/C(=N/S(=O)(=O)c3cccs3)c3ccccc3C2=O)c1 | 0.934 µM
70 | COC(=O)c1ccccc1NC(=O)c1nc(S(=O)(=O)Cc2ccccc2)ncc1Cl | 3.25 µM
71 | Brc1ccc2[nH]c3c(N4CCc5ccccc5C4)ncnc3c2c1 | 17.3 µM
72 | FC(F)(F)c1cc(CCN2CCNC[C@@H]2Cc2ccccc2)cc(C(F)(F)F)c1 | 13.7 µM
73 | O=C(Nc1ncc(Cc2cccc([N+](=O)[O-])c2)s1)c1ccco1 | 1.44 µM
74 | CCn1c(C(=O)O)c(CC(=O)Nc2cccc(C(F)(F)F)c2)c2ccccc21 | 14.6 µM
75 | C/C(CC(=O)Nc1ccc(Cl)c(C(F)(F)F)c1)=N\NC(=O)c1cc2ccccc2cc1O | 13.3 µM
76 | O=S(=O)(NCc1ccncc1)c1ccc(S(=O)(=O)NCC2CCCO2)cc1 (stereo not given) | > 19.5 µM (inactive)
77 | Cc1ccc(N/N=C/c2c(O)n(-c3ccccc3)c(=O)[nH]c2=O)cc1 | 3.87 µM
78 | N#CCSc1nc2ccccc2c2nc3ccccc3n12 | 5.1 µM
79 | Cc1ccc(-c2cc(C(=O)NCc3ccc4c(c3)OCO4)no2)cc1 | > 19.5 µM (inactive)
80 | CC(C)(C)C1CCC(CN2C(Nc3ccccc3)=NC[C@@H]2Cc2ccccc2)CC1 (stereo not given in full) | 6.54 µM
81 | CCCCCCCCCCCCN1[C@@H](CC(C)=O)c2cc(F)ccc2S1(=O)=O | 10 µM
82 | Cc1ccc(C(C)C)c(OCc2nn(CC(=O)c3ccc(OC(F)F)cc3)c3[n+]2CCCCC3)c1 | 4.17 µM
83 | O=c1cc(CNc2cc(C(F)(F)F)cc(C(F)(F)F)c2)nc2sccn12 | 3.39 µM
84 | C=CCNc1ncnc2c1ncn2C1OC(CO)C(O)C1O (stereo not given) | 4.39 µM
85 | CCc1nc(N2CCN(Cc3ccc4c(c3)OCO4)CC2)c2oc3ccccc3c2n1 | 3.85 µM
86 | Cc1cccc(N/N=C/c2ccccc2O)c1 | 18.6 µM
87 | CN(C)/C=C(\C=N\OCc1ccc(Cl)cc1Cl)C(=O)Nc1ccc(Cl)c(Cl)c1 | 4.22 µM
88 | FC(F)(F)c1nnc(-c2ccccc2)nc1Sc1ccc(Cl)cc1 | 6.48 µM

Row | SMILES | AC50
89 | Cc1ccccc1N=C1SC(CC(=O)Nc2ccc3ccccc3c2)C(=O)N1Cc1ccccn1 (stereo not given) | 6.02 µM
90 | CCCc1cc2c(=O)c(-c3ccc4c(c3)OCCO4)coc2cc1OC(=O)c1ccco1 | 10.9 µM
91 | COc1ccccc1Nc1ccc(NC(=O)c2cccc([N+](=O)[O-])c2C)cc1 | 3.82 µM
92 | CCOC(=O)c1c(C)oc2c(F)c(F)c(F)c(F)c2c1=O | 2.02 µM
93 | Cc1ccc(-c2nc(NCc3ccco3)c3ccccc3n2)cc1 | 12.4 µM
94 | COc1cc(S(=O)(=O)N2CCCCCC2)c(OC)cc1Br | 2.55 µM
95 | Cc1nc2ccccc2n1-c1nc(-c2ccco2)cc(C(F)(F)F)n1 | 0.817 µM
96 | OC(COCC(F)(F)C(F)(F)C(F)(F)C(F)F)Cn1c2ccccc2c2ccccc21 (stereo not given) | 6.63 µM
97 | CCc1ccc(N(CC(=O)Nc2nc3ccc(C)cc3s2)S(=O)(=O)c2c(C)noc2C)cc1 | 6 µM
98 | CCC(=O)NNc1ccc(Br)cc1 | 6.69 µM
99 | O=C(Nc1ccc(Cn2cccn2)cc1)c1ccc(COc2cccc(Br)c2)cc1 | 0.302 µM
100 | CC(C)(c1ccccc1)c1ccc(OCCCN2CCNCC2)cc1 | 0.745 µM
101 | COc1ccc2cc1Oc1ccc(cc1)C[C@H]1c3c(cc(OC)c4c3Oc3c(ccc5c3[C@H](C2)N(C)CC5)O4)CCN1C | 3.63 µM
102 | O=C(Oc1ccc(Br)cc1C(=O)/C=C/c1ccccc1F)c1ccco1 | 4.19 µM
103 | COc1cc(N=Nc2ccc3ccccc3c2)ccc1O | 6.43 µM
104 | COc1ccc(/C=C2/C(=O)N(c3nc4ccccc4s3)N=C2CSc2ccc(Cl)cc2)cc1 | 6.5 µM
105 | CCC(c1nnnn1Cc1ccco1)N1CCN(c2cc(Cl)ccc2C)CC1 (stereo not given) | 4.04 µM
106 | CC(=O)Oc1ccc(-c2csc(Nc3cccc(C)n3)n2)cc1 | 8.79 µM
107 | O=C(Nc1nc2ccccc2s1)C1CCN(S(=O)(=O)c2cc([N+](=O)[O-])ccc2Cl)CC1 | 19 µM
108 | CC(C)c1ccc(-c2cc(C(=O)N3N=C(C(F)F)CC3(O)C(F)F)c3ccccc3n2)cc1 (stereo not given) | 6.3 µM
109 | OC(COc1ccc2ccccc2c1Br)Cn1cnc(-c2ccccc2)c1 (stereo not given) | 6.05 µM
110 | CS(=O)(=O)Nc1ccccc1C(=O)Nc1cccc(Cl)c1 | > 19.5 µM (inactive)
